Laboratory results as given in patent US8309552B2, “Immunomodulating heterocyclic compounds” (Medigene AG, priority 2003, dated 2012).

Molecular target: T1, CD80-CD28 interaction (Homo sapiens, UniProt P33681)
T1 sequence (P33681 35-242 limits assumed): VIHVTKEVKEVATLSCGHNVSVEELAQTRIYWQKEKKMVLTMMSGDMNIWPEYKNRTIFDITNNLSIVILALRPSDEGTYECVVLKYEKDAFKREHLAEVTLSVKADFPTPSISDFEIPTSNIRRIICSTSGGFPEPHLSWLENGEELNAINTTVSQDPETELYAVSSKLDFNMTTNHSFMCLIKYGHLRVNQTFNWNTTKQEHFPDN
Experiment: Homogenous Time Resolved Fluorescence (HTRF) assay, cell free
Format: binding
Details: cell-free HTRF, concentration series 100 μM-1.7 nM, 4 hours at room temperature; read-out: Activity (EC50 in the HTRF assay)
Method in brief: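 In pH7.8 Tris-HCl/NaCl buffer with 0.1% BSA, a 100 μM-1.7 nM compound series was incubated for 4 h at room temperature with CD28 and CD80 fusions carrying europium and APC via linker antibodies. Time-resolved signals at 665 and 615 nm were read after 340 nm excitation; a C215 Fab swap defined background. EC50 given as banded classes.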

Row | SMILES | EC50
1 | O=C(NC1CCC(=C(F)F)CC1)c1ccc(-n2[nH]c3c(nnc4c(F)cccc43)c2=O)cc1 (stereo not shown) [Example 492] | < 1 µM
2 | NC1CCCC(NC(=O)c2ccc(-n3[nH]c4c(nnc5c(F)cccc54)c3=O)cc2)C1 (stereo not shown) [Example 499] | < 1 µM
3 | O=C(NCC(F)F)c1ccc(-n2[nH]c3c(nnc4c(F)ccc(F)c43)c2=O)cc1 [Example 500] | < 1 µM
4 | O=C(N[C@H]1CC[C@H](O)CC1)c1ccc(-n2[nH]c3c(nnc4c(F)cccc43)c2=O)cc1 [Example 501] | < 1 µM
5 | O=C(NCC1CCCCCC1O)c1ccc(-n2[nH]c3c(nnc4c(F)cccc43)c2=O)cc1 (stereo not shown) [Example 503] | 1 to 10 µM
6 | O=C(NCC1CCCCC1O)c1ccc(-n2[nH]c3c(nnc4c(F)cccc43)c2=O)cc1 (stereo not shown) [Example 504] | 1 to 10 µM
7 | O=C(NCC1CCCCCCC1O)c1ccc(-n2[nH]c3c(nnc4c(F)cccc43)c2=O)cc1 (stereo not shown) [Example 506] | 1 to 10 µM
8 | O=C(N[C@H]1c2ccccc2C[C@H]1O)c1ccc(-n2[nH]c3c(nnc4c(F)cccc43)c2=O)cc1 [Example 510] | 1 to 10 µM
9 | O=C(NC(CO)Cc1ccc(O)cc1)c1ccc(-n2[nH]c3c(nnc4c(F)cccc43)c2=O)cc1 (stereo not shown) [Example 511] | 1 to 10 µM
10 | O=C(N[C@@H](CO)[C@@H](O)c1ccccc1)c1ccc(-n2[nH]c3c(nnc4c(F)cccc43)c2=O)cc1 [Example 513] | 1 to 10 µM
11 | O=C(NC(CO)Cc1ccccc1)c1ccc(-n2[nH]c3c(nnc4c(F)cccc43)c2=O)cc1 (stereo not shown) [Example 514] | < 1 µM
12 | O=C(NC(CO)Cc1c[nH]c2ccccc12)c1ccc(-n2[nH]c3c(nnc4c(F)cccc43)c2=O)cc1 (stereo not shown) [Example 515] | 1 to 10 µM

The remaining lines, values ahead:

Row | EC50 | SMILES
13 | < 1 µM | NC(=O)CNC(=O)c1ccc(-n2[nH]c3c(nnc4c(F)cccc43)c2=O)cc1 [Example 491]
14 | < 1 µM | CC(F)CCNC(=O)c1ccc(-n2[nH]c3c(nnc4c(F)cccc43)c2=O)cc1 (stereo not shown) [Example 493]
15 | < 1 µM | CC(C)C(C)(C#N)NC(=O)c1ccc(-n2[nH]c3c(nnc4c(F)cccc43)c2=O)cc1 (stereo not shown) [Example 498]
16 | < 1 µM | CC(O)CCNC(=O)c1ccc(-n2[nH]c3c(nnc4c(F)cccc43)c2=O)cc1 (stereo not shown) [Example 502]
17 | < 1 µM | O=C(NCCNCCO)c1ccc(-n2[nH]c3c(nnc4c(F)cccc43)c2=O)cc1 [Example 505]
18 | < 1 µM | O=C(NC(CO)CO)c1ccc(-n2[nH]c3c(nnc4c(F)cccc43)c2=O)cc1 [Example 507]
19 | < 1 µM | CC(CO)NC(=O)c1ccc(-n2[nH]c3c(nnc4c(F)cccc43)c2=O)cc1 (stereo not shown) [Example 508]
20 | < 1 µM | CCC(CO)NC(=O)c1ccc(-n2[nH]c3c(nnc4c(F)cccc43)c2=O)cc1 (stereo not shown) [Example 509]
21 | > 10 µM | CC(C)(CO)NC(=O)c1ccc(-n2[nH]c3c(nnc4c(F)cccc43)c2=O)cc1 [Example 516]
22 | < 1 µM | CC(CO)(CO)NC(=O)c1ccc(-n2[nH]c3c(nnc4c(F)cccc43)c2=O)cc1 [Example 517]
